Experiments:
[1] = tested on: L3.6pl wt; experiment: MTT proliferation assay, L3.6pl wt; assay type: cell-based, human
Protocol: The cell lines used for the proliferation assays were cultured in different media. The cell lines Pan-1, Panc-2 and BxPC3, which have been derived from the human ductal pancreatic adenocarcinoma (PDAC), were cultured in Dulbecco's modified Eagle medium (DMEM) (Sigma), that was supplemented with 1% penicillin/streptomycin (Life technologies/GIBCO 15140-122) and 10% fetal bovine serum (Life technologies/GIBCO 100500-064). The cell line L3.6pl was cultured in RPMI 1640 medium (Life technologies/GIBCO 72400-21) that was supplemented with 1% penicillin/streptomycin and 10% fetal bovine serum. […]
The proliferation rates of the cell lines were determined after stimulation with (i) biperiden, (ii) mepazine, and (iii) stimulation with both active ingredients. […] Next morning, the blanket values were measured at 490 nm in an ELISA reader (FLUOstar Omega, BMG LABTECH) after the addition of 100 μL medium and 20 μL MTT substrate (CellTiter 96 AQueous One Solution Cell Proliferation Assay, Promega). […] The ex-tinction was measured every 24 hours during a period of 72 hours.
(§1) The normal distribution of the results was analyzed by Kolgomorov-Smirnov test and Shapiro-Wilk test. Non-parametric variables were analyzed using the Mann-Whitney-U test. […]

[2] = tested on: HPDE; experiment: MTT proliferation assay, HPDE reference cell line; assay type: cell-based, human; conditions: for reaction of proliferation: mepazine, other doses of biperiden or a combination of mepazine and biperiden
Protocol: The cell lines used for the proliferation assays were cultured in different media. The cell lines Pan-1, Panc-2 and BxPC3, which have been derived from the human ductal pancreatic adenocarcinoma (PDAC), were cultured in Dulbecco's modified Eagle medium (DMEM) (Sigma), that was supplemented with 1% penicillin/streptomycin (Life technologies/GIBCO 15140-122) and 10% fetal bovine serum (Life technologies/GIBCO 100500-064). The cell line L3.6pl was cultured in RPMI 1640 medium (Life technologies/GIBCO 72400-21) that was supplemented with 1% penicillin/streptomycin and 10% fetal bovine serum. A sub-clone of the cell line L3.6pl, that was designated L3.6pl res, was resistant to gemcitabine and was also cultured in RPMI 1640 medium (Life technologies/GIBCO 72400-21) that was supplemented with 1% penicillin/streptomycin, 10% fetal bovine serum and 2 μM gemcitabine (GEMZAR, Lily). The human immortalized, non-malignant cell line of the ductal pancreatic epithelium (HPDE) was cultured in keratinocyte-SFM (Life technologies/GIBCO) that was supplemented with 10% fetal bovine serum, 1% penicillin/streptomycin and 1% epidermal growth factor (EGF).
The proliferation rates of the cell lines were determined after stimulation with (i) biperiden, (ii) mepazine, and (iii) stimulation with both active ingredients. For this purpose, cells were seeded in plates with 96 wells at 5000 cells per well and incubated overnight at 37° C. and 5% CO2. Next morning, the blanket values were measured at 490 nm in an ELISA reader (FLUOstar Omega, BMG LABTECH) after the addition of 100 μL medium and 20 μL MTT substrate (CellTiter 96 AQueous One Solution Cell Proliferation Assay, Promega). Biperiden was added in increasing concentrations (3.71 μg/ml, 11.1 μg/ml und 29.6 μg/ml) in the form of solutions of biperiden hydrochloride (B5311 SIGMA-Aldrich, USA) and DMSO. […] The ex-tinction was measured every 24 hours during a period of 72 hours.
as §1

[3] = molecular target: T1, MALT1 (Homo sapiens, UniProt Q9UDY8); experiment: MALT1 activity in treated cells (immunoprecipitation, AC-LRSR-AMC cleavage); assay type: cell-based
T1 construct: endogenous in cells; host or cells: Panc-1, Panc-2, HPDE, Jurkat (PMA-stimulated and non-stimulated)
T1 sequence (Q9UDY8 1-824): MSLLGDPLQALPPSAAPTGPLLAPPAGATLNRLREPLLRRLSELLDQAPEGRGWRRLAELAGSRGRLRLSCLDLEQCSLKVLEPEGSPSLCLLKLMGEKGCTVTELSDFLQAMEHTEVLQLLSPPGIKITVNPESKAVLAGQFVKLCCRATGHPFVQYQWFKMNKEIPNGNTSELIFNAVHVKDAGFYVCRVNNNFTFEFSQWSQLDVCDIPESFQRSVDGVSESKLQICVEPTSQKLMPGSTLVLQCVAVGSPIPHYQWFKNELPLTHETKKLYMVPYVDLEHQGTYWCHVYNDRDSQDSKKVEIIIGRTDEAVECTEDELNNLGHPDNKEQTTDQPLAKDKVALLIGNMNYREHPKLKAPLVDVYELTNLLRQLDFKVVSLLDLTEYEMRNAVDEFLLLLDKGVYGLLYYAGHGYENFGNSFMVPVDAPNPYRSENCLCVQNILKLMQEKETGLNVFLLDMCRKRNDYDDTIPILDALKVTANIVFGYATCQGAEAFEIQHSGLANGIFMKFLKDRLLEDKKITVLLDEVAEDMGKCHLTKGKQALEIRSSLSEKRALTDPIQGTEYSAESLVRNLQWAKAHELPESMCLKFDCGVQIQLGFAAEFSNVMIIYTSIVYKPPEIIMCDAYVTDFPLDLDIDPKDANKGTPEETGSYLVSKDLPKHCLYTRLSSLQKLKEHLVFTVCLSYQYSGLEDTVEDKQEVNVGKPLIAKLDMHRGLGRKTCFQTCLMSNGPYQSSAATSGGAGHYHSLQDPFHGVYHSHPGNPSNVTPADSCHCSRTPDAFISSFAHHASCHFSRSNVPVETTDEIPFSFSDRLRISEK
Protocol: The MALT1 activity was measured in the pancreatic cancer cells Panc-1, Panc-2 and in the reference line HPDE as well as in the PMA-stimulated and non-stimulated Jurkat cells. In order to examine whether mepazine, biperiden or a combination of both active ingredients influence the MALT1 activity and pancreatic cancer cells, an assay was performed as described in Nagel et al.. For this purpose, the pancreatic cancer cell lines and the reference cell lines were treated with biperiden (29.6 μg/ml), mepazine (25 μM), a combination of both active ingredients (15 μM mepazine+3.71 μg/ml biperiden) or only with DMSO. The cells were subsequently lysed and precipitated with mouse anti-MALT1 antibody (SC-76677, Santa Cruz, Calif., USA) as previously described by Gungor et al.. As described in the protocol, the fluorogenic substrate AC-LRSR-AMC, which was derived from the C-terminal BCL 10 cleavage site, was used as a substrate for MALT1. The cleavage activity of MALT1 was subsequently determined as relative fluorescence units by a microtiter plate reader (FLUOstar, Omega, BMG Labtech).
The results were determined after 24 hours of incubation with mepazine, biperiden, or a combination of both active ingredients. It was shown that pancreatic cancer cell lines as well as non-malignant, immortalized HPDE cell lines had constitutive MALT1 activity, although to a different extent. As a reference, a non-stimulated Jurkat cell line and a Jurkat cell line that was activated with PMA were examined.

MALT1 activity ([3]; HPDE, 25 μM mepazine, 24 hours of incubation) | MALT1 activity ([3]; Panc-1, 25 μM mepazine, immediately after addition of the MALT1 substrate and 10, 30, 60 and 90 minutes thereafter, statistically significant) | Structure (SMILES) | reduction in the proliferation rate ([1]; 29.7 μg/ml biperiden, p=0.02) [%] | proliferation ([2]; 11.1 μg/ml biperiden) | reaction of proliferation [2] | MALT1 activity ([3]; HPDE, 29.7 μg/ml biperiden, 10, 30 and 60 minutes after incubation with the MALT1 substrate, significantly (p=0.002; p=0.005; p=0.012)) | MALT1 activity ([3]; Panc-1, 29.7 μg/ml biperiden) | MALT1 activity ([3]; Panc-2, 29.7 μM biperiden, immediately and 10 minutes after addition of the MALT1 substrate, statistically significant (p=0.011; p=0.031)) | reduction in the proliferation rate ([1]; 25 μM mepazine, p=0.004) [%] | MALT1 activity ([3]; Panc-2, 25 μM mepazine)
– | – | OC(CCN1CCCCC1)(c1ccccc1)C1CC2C=CC1C2 (centres unmarked) [biperiden] | 96.4 | reduced slightly | no statistically significant reaction | reduced the MALT1 activity | visibly reduced the MALT1 activity; however, this effect was not statistically significant | the MALT1 activity was reduced | – | –
did not influence the MALT1 activity | the MALT1 activity was reduced | CN1CCCC(CN2c3ccccc3Sc3ccccc32)C1 (centres unmarked) [mepazine] | – | – | no statistically significant reaction | – | – | – | 97.9 | reduced the MALT1 activity, whereas this reduction however was not statistically significant

— patent publication US20180153870A1, “BIPERIDEN FOR TREATING CANCER” (Universitätsklinikum Hamburg-Eppendorf, priority 2015, published 2018)
